Our source for the melting point values is patent US7652010B2 (priority 2004, dated 2010).

Each structure is given as a SMILES string.

For `C(#Cc1ccc(OC2CN3CCC2CC3)nn1)c1ccsc1.O=C(O)/C=C/C(=O)O` (racemic) [Compound C10, (±)-3-(6-Thiophen-3-ylethynyl-pyridazin-3-yloxy)-1-aza-bicyclo[2.2.2]octane fumaric acid salt], the melting point (usually the temperature of the solid-liquid transition) lay in the range of 133.9 to 141.6 °C.
As to `Nc1cccc(C#Cc2ccc(OC3CN4CCC3CC4)nn2)c1` (racemic) [Compound C7, (±)-3-[6-(1-Aza-bicyclo[2.2.2]oct-3-yloxy)-pyridazin-3-ylethynyl]-phenylamine free base], the melting point lay within 152.4 to 158.1 °C.
`C(#Cc1ccc(OC2CN3CCC2CC3)cc1)c1ccccc1.O=C(O)/C=C/C(=O)O` (racemic) came in with a melting point of 126.9 to 127.3 °C.
In turn, `Nc1ccc(C#Cc2ccc(OC3CN4CCC3CC4)nn2)cc1` (racemic) [Compound C8, (±)-4-[6-(1-Aza-bicyclo[2.2.2]oct-3-yloxy)-pyridazin-3-ylethynyl]-phenylamine free base] registered a melting point of 212 to 220 °C.
`CC(=O)Nc1ccc(C#Cc2ccc(OC3CN4CCC3CC4)nn2)cc1` (racemic) [Compound C6, (±)-N-{4-[6-(1-Aza-bicyclo[2.2.2]oct-3-yloxy)-pyridazin-3-ylethynyl]-phenyl}-acetamide free base]: the melting point was 169.5 to 175.4 °C.
